Test results from EP4467137A1, “TREATMENT OF FRONTOTEMPORAL DEMENTIA OR FRONTOTEMPORAL LOBAR DEMENTIA” (Universidad Autónoma de Madrid, priority 2023, dated 2024).

Legend:
[1] = Oxygen Radical Absorbance Capacity Assay (ORAC); type: physicochemical; conditions: ORAC > 1.0 is a better ROS scavenger than trolox
Method: The Oxygen Radical Absorbance Capacity Assay (ORAC) was performed as described [Herrera-Arozamena, Clara et al. "Resveratrol-Based MTDLs to Stimulate Defensive and Regenerative Pathways and Block Early Events in Neurodegenerative Cascades." Journal of medicinal chemistry vol. 65,6 (2022): 4727-4751. doi:10.1021/acs.jmedchem.1c01883].

[2] = test system: NRF2; assay: NRF2 induction, luciferase activity in AREc32 cells; type: cell-based; conditions: concentration that doubles the activation of NRF2, read-out: NRF2 CD
From the text: Screening of NRF2 induction was quantified by luciferase activity in AREc32 cells as described in [Herrera-Arozamena, Clara et al. "Tuning melatonin receptor subtype selectivity in oxadiazolone-based analogues: Discovery of QR2 ligands and NRF2 activators with neurogenic properties." European journal of medicinal chemistry vol. 190 (2020): 112090. doi:10.1016/j.ejmech.2020.112090].
(§1) Based on the results obtained (Table 2), Compound 1 was selected for further in vitro and in vivo studies as it was endowed with the best anti-neuroinflammatory activity. Table 2: Comparative in vitro results. Cell viability/toxicity: effect of the compound per se on cell viability of […] cells measured with the MTT method. Anti-neuroinflammatory effect: % Reduction of nitrites in primary rat glial cultures. PAMPA-BBB: In vitro blood-brain barrier permeation assay, permeation rate Pe (10-6 cm.s-1). NRF2, CD (µM): Concentration of compound that doubles de activation of NRF2. ORAC: Oxygen radical absorbance capacity. LOX-5: lipoxygenase-5.

[3] = test system: primary rat glial cultures; assay: Anti-neuroinflammatory screening in LPS-treated primary glial cultures (Griess, normalized by MTT); type: cell-based; conditions: % reduction of nitrites, LPS alone = 100 % inflammation, read-out: Anti-neuro inflammatory effect at 3 µM (%)
Method: Screening for anti-inflammatory properties in primary rat glial cultures was performed according to the protocol described previously [Gameiro, Isabel et al. "Discovery of the first dual GSK3β inhibitor/Nrf2 inducer. A new multitarget therapeutic strategy for Alzheimer's disease." Scientific reports vol. 7 45701. 31 Mar. 2017, doi:10.1038/srep45701]. All compounds were evaluated at the single concentration of 3 µM. Neuroinflammation was quantified as the value of released […], measured by the Griess method, normalized by the number of viable cells measured by the MTT method [Mosmann, T. "Rapid colorimetric assay for cellular growth and survival: application to proliferation and cytotoxicity assays." Journal of immunological methods vol. 65, 1-2 (1983): 55-63. doi:10.1016/0022-1759(83)90303-4]. LPS alone was considered 100 % inflammation.
as §1

[4] = In vitro blood-brain barrier permeation assay (PAMPA-BBB); type: in vitro ADME; conditions: for Papp: PAMPA, permeation rate, mean ± SD, read-out: PAMPA-BBB Pe
From the text: The in vitro blood-brain barrier permeation assay (PAMPA-BBB) was used for predicting the brain penetration of compounds, following a described method [Herrera-Arozamena, Clara et al. "Resveratrol-Based MTDLs to Stimulate Defensive and Regenerative Pathways and Block Early Events in Neurodegenerative Cascades." Journal of medicinal chemistry vol. 65,6 (2022): 4727-4751. doi:10.1021/acs.jmedchem.1c01883]. The results are given as the mean ± SD. In each experiment, 11 quality control standards of known BBB permeability were included to validate the analysis set.

[5] = Cell viability/toxicity by the MTT method; type: cell-based; conditions: human, effect of the compound per se on AREc332 cells
From the text: as §1

[6] = target: T1, human lipoxygenase-5 (hLOX-5) (Homo sapiens, UniProt P09917); assay: Inhibition of human lipoxygenase-5; type: biochemical; conditions: mean ± SD of three independent experiments in triplicate; read-out: LOX5 IC50
T1 sequence (P09917 1-674): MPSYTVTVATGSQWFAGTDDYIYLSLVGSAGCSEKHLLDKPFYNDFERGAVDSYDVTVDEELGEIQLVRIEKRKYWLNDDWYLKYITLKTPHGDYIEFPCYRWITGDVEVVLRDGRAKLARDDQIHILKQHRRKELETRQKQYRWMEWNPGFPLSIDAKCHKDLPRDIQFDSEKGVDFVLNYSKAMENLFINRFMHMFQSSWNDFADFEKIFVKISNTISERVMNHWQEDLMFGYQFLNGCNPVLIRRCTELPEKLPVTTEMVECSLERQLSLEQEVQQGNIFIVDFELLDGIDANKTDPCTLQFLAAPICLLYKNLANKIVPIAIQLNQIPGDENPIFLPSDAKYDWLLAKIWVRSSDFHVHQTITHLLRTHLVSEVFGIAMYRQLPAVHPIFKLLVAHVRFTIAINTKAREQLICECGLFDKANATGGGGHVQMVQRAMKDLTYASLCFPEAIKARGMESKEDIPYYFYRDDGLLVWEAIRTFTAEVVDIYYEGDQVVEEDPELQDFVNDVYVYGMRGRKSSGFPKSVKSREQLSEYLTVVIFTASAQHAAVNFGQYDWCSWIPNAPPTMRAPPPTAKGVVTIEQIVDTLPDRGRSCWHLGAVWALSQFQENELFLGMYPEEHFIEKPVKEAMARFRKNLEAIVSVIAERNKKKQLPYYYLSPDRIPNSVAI
Method: The inhibition of human lipoxygenase-5 (hLOX-5) was performed as described [Herrera-Arozamena, Clara et al. "Tuning melatonin receptor subtype selectivity in oxadiazolone-based analogues: Discovery of QR2 ligands and NRF2 activators with neurogenic properties." European journal of medicinal chemistry vol. 190 (2020): 112090. doi:10.1016/j.ejmech.2020.112090], Data are the mean ± SD of three independent experiments performed in triplicate.

| SMILES | ORAC (trolox equiv.) [1] [trolox equiv.] | EC (2-fold activation) [2] [µM] | inhibition at 3 µM [3] [%] | PAMPA-BBB predicted brain penetration [4] | Papp [4] [×10⁻⁶ cm/s] | CC50 [5] [µM] | IC50 [6] [µM] |
| --- | --- | --- | --- | --- | --- | --- | --- |
| COc1cccc2c1NC(c1c[nH]c3c(OC)cccc13)C2 (stereo not shown) [Compound 6, 7-Methoxy-3-(7-methoxyindolin-2-yl)-1H-indole] | 1.0 ± 0.1 | 3.27 ± 0.25 | 45 ± 8.7 | cns+ | 18.5 ± 0.8 | > 30 | > 100 |
| COc1ccc2[nH]c(-c3c[nH]c4ccc(OC)cc34)cc2c1 [Compound 2, 5,5'-Dimethoxy-1H,1'H-2,3'-biindole] | 1.5 ± 0.2 | 0.329 ± 0.017 | 33.2 ± 11.8 | cns+ | 8.7 ± 0.6 | 3 to 10 | 0.42 ± 0.03 |
| Clc1ccc2[nH]c(-c3c[nH]c4ccc(Cl)cc34)cc2c1 [Compound 5, 5,5'-Dichloro-1H,1'H-2,3'-biindole] | 0.5 ± 0.1 | 2.57 ± 0.68 | 30 ± 10 | cns+ | 10.9 ± 0.7 | > 30 | > 100 |
| c1ccc2c(c1)CC(c1c[nH]c3ccccc13)N2 (stereo not shown) [Compound 3, 3-(Indolin-2-yl)-1H-indole] | 1.9 ± 0.1 | 0.0713 ± 0.031 | 24.4 ± 6.7 | cns+ | 11.5 ± 0.8 | > 30 | 2.89 ± 0.44 |
| C#CCN1c2ccc(OC)cc2CC1c1cn(CC#C)c2ccc(OC)cc12 (stereo not shown) [Compound 8, 5-Methoxy-3-(5-methoxy-1-(prop-2-yn-1-yl)indolin-2-yl)-1-(prop-2-yn-1-yl)-1H-indole] | 1.3 ± 0.1 | 10.7 ± 1.3 | 37 ± 11 | cns+ | 8.3 ± 0.3 | > 30 | 0.53 ± 0.02 |
| Clc1ccc2c(c1)CC(c1c[nH]c3ccc(Cl)cc13)N2 (stereo not shown) [Compound 4, 5-Chloro-3-(5-chloroindolin-2-yl)-1H-indole] | 1.6 ± 0.2 | 2.04 ± 0.2 | 29.6 ± 9.4 | cns+ | 5.2 ± 0.4 | 10 to 30 | 4.57 ± 0.25 |
| FC(F)(F)c1ccc2c(c1)CC(c1c[nH]c3ccc(C(F)(F)F)cc13)N2 (stereo not shown) [Compound 7, 5-(Trifluoromethyl)-3-(5-(trifluoromethyl)indolin-2-yl)-1H-indole] | 1.3 ± 0.1 | > 30 | 45 ± 7.1 | cns+ | 18.1 ± 0.9 | 10 to 30 | 6.63 ± 0.21 |
